pKi: −log10 of the molar value.
Tests used:
Format in all cases: biochemical
[1] = molecular target: T1, Human plasma kallikrein (h PK) (Homo sapiens, UniProt P03952); experiment: Inhibition of human plasma kallikrein (reference enzyme); conditions: S2302 substrate
T1 construct: purchased Enzyme Research Laboratories
Procedure: (§1) The inhibitory effect against the individual purified enzymes was determined in analogy to a previously disclosed method (Stürzebecher et al., J. Med. Chem., 40, 3091-3099 (1997)).
(§2) The release of p-nitroaniline (p-NA, the chromogenic product of the proteolytic activity), was determined by change in absorbance at 405 nm. The equilibrium rates were used to calculate the inhibitor/enzyme dissociation constant (Ki values) by parameter fitting in accordance with the rate equation for competitive inhibition using GraFit (version 4 from Erithacus). The results are reported as Ki values (nanomolar) in table 7 and are the average of at least three determinations.
(§3) Dissociation constants were calculated as described herein.

[2] = molecular target: T2, Human plasmin (h plasmin) (Homo sapiens, UniProt P00747); experiment: Inhibition of human plasmin (reference enzyme); conditions: Chromozym PL substrate
T2 construct: purchased Calbiochem
T2 sequence (P00747 581-810 limits assumed): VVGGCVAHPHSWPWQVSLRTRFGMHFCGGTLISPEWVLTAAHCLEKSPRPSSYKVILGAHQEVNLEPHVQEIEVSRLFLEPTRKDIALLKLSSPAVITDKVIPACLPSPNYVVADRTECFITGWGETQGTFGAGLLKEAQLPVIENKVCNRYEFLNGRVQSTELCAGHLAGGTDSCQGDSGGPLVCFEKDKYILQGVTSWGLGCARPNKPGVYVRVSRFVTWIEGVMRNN
T2 sequence (P00747 97-580 partner limits assumed): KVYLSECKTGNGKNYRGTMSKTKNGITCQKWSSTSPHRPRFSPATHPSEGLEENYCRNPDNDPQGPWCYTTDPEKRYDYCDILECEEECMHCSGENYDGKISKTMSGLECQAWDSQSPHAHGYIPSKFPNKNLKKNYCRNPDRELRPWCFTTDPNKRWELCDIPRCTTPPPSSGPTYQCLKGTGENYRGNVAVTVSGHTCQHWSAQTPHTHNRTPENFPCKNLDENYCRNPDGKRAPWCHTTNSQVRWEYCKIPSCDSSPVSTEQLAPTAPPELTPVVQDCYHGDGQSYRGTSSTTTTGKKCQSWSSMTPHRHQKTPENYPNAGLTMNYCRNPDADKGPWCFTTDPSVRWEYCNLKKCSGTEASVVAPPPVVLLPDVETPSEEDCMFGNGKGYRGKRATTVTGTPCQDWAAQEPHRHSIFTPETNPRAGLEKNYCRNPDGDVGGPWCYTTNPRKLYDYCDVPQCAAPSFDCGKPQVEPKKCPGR
Procedure: as §1, §2, §3

[3] = molecular target: T3, Human urinary kallikrein (h uKK) (Homo sapiens, UniProt P06870); experiment: Inhibition of human urinary kallikrein (reference enzyme); conditions: S-2266 substrate
T3 construct: purchased Lee Biosolutions
T3 sequence (P06870 25-262): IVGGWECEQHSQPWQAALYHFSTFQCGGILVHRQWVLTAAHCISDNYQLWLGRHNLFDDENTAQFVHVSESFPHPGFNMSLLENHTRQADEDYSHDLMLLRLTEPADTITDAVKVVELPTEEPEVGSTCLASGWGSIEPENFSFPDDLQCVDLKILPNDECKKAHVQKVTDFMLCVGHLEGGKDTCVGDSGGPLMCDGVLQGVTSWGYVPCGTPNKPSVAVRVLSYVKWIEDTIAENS
Procedure: as §1, §2, §3

[4] = molecular target: T4, Human tissue-type plasminogen activator (h t-PA) (Homo sapiens, UniProt P00750); experiment: Inhibition of human tissue-type plasminogen activator (reference enzyme); conditions: Pefachrome tPA substrate; read-out: Ki h t-PA
T4 construct: purchased Boehringer Ingelheim Actilyse
T4 sequence (P00750 36-562): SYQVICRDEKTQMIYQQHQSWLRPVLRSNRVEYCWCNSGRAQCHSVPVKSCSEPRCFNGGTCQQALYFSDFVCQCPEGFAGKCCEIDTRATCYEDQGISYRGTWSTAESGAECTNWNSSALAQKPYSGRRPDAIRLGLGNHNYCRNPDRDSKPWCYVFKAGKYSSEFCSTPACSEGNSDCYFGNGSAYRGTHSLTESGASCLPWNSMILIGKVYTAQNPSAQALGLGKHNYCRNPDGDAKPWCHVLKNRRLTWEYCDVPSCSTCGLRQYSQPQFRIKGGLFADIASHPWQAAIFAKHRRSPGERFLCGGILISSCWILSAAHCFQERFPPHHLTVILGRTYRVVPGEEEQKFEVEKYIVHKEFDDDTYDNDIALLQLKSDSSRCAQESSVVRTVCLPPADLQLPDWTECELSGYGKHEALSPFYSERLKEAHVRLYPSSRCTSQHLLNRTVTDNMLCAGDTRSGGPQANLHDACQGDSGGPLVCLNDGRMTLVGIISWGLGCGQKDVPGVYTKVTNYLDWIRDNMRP
Procedure: The equilibrium rates were used to calculate the inhibitor/enzyme dissociation constant (Ki values) by parameter fitting in accordance with the rate equation for competitive inhibition using GraFit (version 4 from Erithacus).
as §3

[5] = molecular target: T5, Human Activated Protein C (h aPC) (Homo sapiens, UniProt P04070); experiment: Inhibition of human activated protein C (reference enzyme); conditions: Pefachrome PCa substrate
T5 construct: purchased Enzyme Research Laboratories
T5 sequence (P04070 212-450 limits assumed): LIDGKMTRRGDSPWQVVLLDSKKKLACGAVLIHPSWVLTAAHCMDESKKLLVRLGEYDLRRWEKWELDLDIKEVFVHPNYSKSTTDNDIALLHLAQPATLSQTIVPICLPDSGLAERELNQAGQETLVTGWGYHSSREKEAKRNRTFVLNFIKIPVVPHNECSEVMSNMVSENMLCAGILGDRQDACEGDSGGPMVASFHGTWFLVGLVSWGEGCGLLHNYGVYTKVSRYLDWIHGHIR
T5 sequence (P04070 43-197 partner limits assumed): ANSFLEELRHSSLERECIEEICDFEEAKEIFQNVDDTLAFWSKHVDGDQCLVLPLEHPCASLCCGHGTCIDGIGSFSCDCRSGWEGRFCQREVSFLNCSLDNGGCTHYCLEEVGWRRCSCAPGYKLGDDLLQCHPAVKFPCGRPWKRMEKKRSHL
Procedure: as §1, §2, §3

[6] = molecular target: T6, human factor IIa (human alpha-thrombin) (Homo sapiens, UniProt P00734); experiment: Inhibition constants for human factor IIa, chromogenic substrate assay; conditions: 25° C., Pefachrome tPA substrate, average of at least three determinations; read-out: Ki h FIIa
T6 construct: human alpha-thrombin from Enzyme Research Laboratories; purchased Enzyme Research Laboratories
Procedure: as §1
(§4) 200 μL of TBS (0.05 M trishydroxymethylaminomethane; 0.154 M NaCl, 2% ethanol, pH 8.0)
as §2

[7] = molecular target: T7, Human urokinase type plasminogen activator (h u-PA) (Homo sapiens, UniProt P00749); experiment: Inhibition of human urokinase type plasminogen activator (reference enzyme); conditions: H-Glu-Gly-Arg-pNA substrate
T7 construct: purchased MEDAC GmbH Urokinase HS medac
Procedure: as §1, §2, §3

[8] = molecular target: T8, Subcomponent "r" of Human Complement Component 1 (h C1r) (Homo sapiens, UniProt P00736); experiment: Inhibition of human C1r (reference enzyme); conditions: S-2314 substrate; read-out: Ki h Clr
T8 construct: purchased Calbiochem
T8 sequence (P00736 464-705 limits assumed): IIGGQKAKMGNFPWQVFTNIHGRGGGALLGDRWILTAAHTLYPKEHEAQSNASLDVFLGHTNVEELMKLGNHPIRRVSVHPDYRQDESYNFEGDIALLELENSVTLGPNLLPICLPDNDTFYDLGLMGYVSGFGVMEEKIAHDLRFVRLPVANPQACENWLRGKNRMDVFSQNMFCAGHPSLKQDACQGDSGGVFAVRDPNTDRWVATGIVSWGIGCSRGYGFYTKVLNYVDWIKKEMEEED
T8 sequence (P00736 18-463 partner limits assumed): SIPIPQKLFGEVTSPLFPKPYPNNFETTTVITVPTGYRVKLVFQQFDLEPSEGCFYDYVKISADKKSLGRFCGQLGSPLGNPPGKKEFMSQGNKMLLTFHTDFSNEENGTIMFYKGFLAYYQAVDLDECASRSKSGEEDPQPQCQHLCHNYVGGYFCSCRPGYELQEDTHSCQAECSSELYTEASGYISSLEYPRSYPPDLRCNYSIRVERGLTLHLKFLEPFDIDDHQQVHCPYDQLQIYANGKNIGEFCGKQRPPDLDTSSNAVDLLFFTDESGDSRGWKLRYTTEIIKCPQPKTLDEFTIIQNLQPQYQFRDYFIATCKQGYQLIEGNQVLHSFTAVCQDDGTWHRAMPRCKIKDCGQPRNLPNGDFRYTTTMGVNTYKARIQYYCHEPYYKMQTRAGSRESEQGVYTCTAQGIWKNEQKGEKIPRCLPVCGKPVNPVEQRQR
Procedure: as §1, §2, §3

human Factor Xa = molecular target: T9, human Factor Xa (Homo sapiens, UniProt P00742); experiment: Inhibition constants for human factor Xa, chromogenic substrate assay; conditions: 25° C., Pefachrome FXa substrate, average of at least three determinations; read-out: Ki h FXa
T9 construct: human Factor Xa from Enzyme Research Laboratories; purchased Enzyme Research Laboratories
T9 sequence (P00742 235-488 limits assumed): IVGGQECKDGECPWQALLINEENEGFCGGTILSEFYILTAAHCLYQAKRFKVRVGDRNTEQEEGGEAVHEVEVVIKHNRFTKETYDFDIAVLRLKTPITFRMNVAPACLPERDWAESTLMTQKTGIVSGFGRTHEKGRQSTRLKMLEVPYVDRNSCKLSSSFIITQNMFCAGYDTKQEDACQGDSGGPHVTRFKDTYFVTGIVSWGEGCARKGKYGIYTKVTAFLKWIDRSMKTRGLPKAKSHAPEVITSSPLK
T9 sequence (P00742 41-179 partner limits assumed): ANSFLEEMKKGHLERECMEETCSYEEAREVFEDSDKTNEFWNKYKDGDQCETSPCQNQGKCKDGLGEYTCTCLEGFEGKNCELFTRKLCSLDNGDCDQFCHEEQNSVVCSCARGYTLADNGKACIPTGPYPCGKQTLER
Procedure: as §1, §4, §2

[9] = molecular target: T10, Subcomponent "s" of Human Complement Component 1 (h C1s) (Homo sapiens, UniProt P09871); experiment: Inhibition of human C1s (reference enzyme); conditions: S-2314 substrate; read-out: Ki h Cls
T10 construct: purchased Calbiochem
T10 sequence (P09871 438-688 limits assumed): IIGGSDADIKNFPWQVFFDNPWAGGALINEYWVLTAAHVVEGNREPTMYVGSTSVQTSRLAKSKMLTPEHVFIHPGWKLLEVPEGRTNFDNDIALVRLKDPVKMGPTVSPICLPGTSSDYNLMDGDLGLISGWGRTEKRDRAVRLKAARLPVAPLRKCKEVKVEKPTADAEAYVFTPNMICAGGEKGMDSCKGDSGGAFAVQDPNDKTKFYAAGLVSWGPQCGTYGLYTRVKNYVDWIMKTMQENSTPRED
T10 sequence (P09871 16-437 partner limits assumed): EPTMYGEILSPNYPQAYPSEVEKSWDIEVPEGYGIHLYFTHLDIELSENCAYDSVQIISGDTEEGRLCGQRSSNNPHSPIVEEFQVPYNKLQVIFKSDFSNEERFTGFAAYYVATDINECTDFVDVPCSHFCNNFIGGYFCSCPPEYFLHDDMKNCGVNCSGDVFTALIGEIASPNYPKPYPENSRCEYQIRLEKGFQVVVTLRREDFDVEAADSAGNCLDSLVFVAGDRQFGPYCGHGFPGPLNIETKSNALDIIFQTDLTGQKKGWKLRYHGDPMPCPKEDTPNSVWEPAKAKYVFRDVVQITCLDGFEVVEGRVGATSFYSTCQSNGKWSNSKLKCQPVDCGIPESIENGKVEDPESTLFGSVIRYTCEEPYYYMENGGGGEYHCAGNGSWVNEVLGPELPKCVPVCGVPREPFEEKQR
Procedure: as §1, §2, §3

T1 sequence (P03952 391-638 limits assumed): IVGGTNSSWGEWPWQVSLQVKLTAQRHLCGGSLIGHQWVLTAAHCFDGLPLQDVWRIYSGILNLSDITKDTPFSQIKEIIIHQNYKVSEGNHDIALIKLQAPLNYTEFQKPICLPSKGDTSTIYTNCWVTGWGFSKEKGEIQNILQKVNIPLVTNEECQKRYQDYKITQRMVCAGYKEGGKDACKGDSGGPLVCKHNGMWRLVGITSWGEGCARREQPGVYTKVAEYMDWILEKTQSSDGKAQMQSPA
T1 sequence (P03952 20-390 partner limits assumed): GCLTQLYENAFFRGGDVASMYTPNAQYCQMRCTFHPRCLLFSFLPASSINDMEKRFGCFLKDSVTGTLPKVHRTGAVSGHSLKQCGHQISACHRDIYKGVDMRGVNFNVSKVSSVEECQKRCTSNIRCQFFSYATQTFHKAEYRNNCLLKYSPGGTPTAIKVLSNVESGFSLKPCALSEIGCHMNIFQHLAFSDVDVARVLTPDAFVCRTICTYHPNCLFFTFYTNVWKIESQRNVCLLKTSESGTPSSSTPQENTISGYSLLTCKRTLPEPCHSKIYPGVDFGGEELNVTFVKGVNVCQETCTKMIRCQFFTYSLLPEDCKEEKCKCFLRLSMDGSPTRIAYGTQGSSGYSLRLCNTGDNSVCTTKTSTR

pKi [1]	pKi [2]	pKi [3]	pKi [4]	pKi [5]	pKi [6]	pKi [7]	pKi [8]	pKi (human Factor Xa)	pKi [9]	Compound
5.92	< 4.82	< 4.30	< 4.82	< 3.70	8.89	< 4.00	< 4.30	9.72	< 4.22	NCc1ccc(Cl)cc1CNC(=O)[C@@H]1C[C@H](N)CN1C(=O)[C@@H](CCC(=O)N1CCOCC1)NS(=O)(=O)Cc1ccccc1 [Compound 2.24]
5.59	< 5.00	< 4.30	< 4.30	< 4.00	8.33	< 4.52	< 4.70	8.96	< 4.00	NCc1ccc(Cl)cc1CNC(=O)[C@@H]1C[C@@H](N)CN1C(=O)[C@@H](CCC(=O)N1CCOCC1)NS(=O)(=O)Cc1ccccc1 [Compound 2.25]
5.59	< 4.52	< 4.30	< 4.00	< 4.30	9.00	< 4.00	< 4.00	8.16	< 5.00	CN(C(=O)CC[C@@H](NS(=O)(=O)Cc1ccccc1)C(=O)N1CCC[C@H]1C(=O)NCc1cc(Cl)ccc1CN)C1CCOCC1 [Compound 2.26]
5.78	< 5.00	< 4.00	< 4.00	< 4.30	9.10	< 4.00	< 4.00	7.74	< 4.00	CN(C(=O)CC[C@@H](NS(=O)(=O)Cc1ccccc1)C(=O)N1CCC[C@H]1C(=O)NCc1cc(Cl)ccc1CN)C1CCNCC1 [Compound 2.27]
6.36	< 5.30	< 4.70	< 4.70	< 4.60	9.00	< 4.40	< 4.52	8.07	< 4.10	NCc1ccc(Cl)cc1CNC(=O)CC[C@@H](NS(=O)(=O)Cc1ccccc1)C(=O)N1CCC[C@H]1C(=O)NCc1cc(Cl)ccc1CN [Compound 2.30]
5.40	< 5.00	< 4.00	< 4.70	< 4.00	9.32	< 4.00	< 4.00	7.68	< 4.00	NCc1ccc(Cl)cc1CNC(=O)[C@@H]1CCCN1C(=O)[C@@H](CCC(=O)N1CCNCC1)NS(=O)(=O)Cc1ccccc1 [Compound 2.31]
5.51	< 4.70	< 5.00	< 4.30	< 4.00	9.82	< 4.00	< 4.00	7.48	< 4.00	NCc1ccc(Cl)cc1CNC(=O)[C@@H]1CCCN1C(=O)[C@@H](CCC(=O)N1CCC(N)CC1)NS(=O)(=O)Cc1ccccc1 [Compound 2.32]
5.22	< 4.70	< 4.40	< 4.70	< 4.52	8.85	< 4.30	< 4.00	8.06	< 4.30	NCc1ccc(Cl)cc1CNC(=O)[C@@H]1CCCN1C(=O)[C@@H](CCC(=O)N1CCOCC1)NC(=O)OCc1ccccc1 [Compound 2.33]
5.75	< 4.70	< 4.00	< 4.00	< 4.00	8.77	< 4.00	< 4.00	7.68	< 4.00	NCc1ccc(Cl)cc1CNC(=O)[C@@H]1CCCN1C(=O)[C@@H](CC(=O)Nc1ccncc1)NS(=O)(=O)Cc1ccccc1 [Compound 2.34]
6.45	< 5.52	< 4.30	6.00	< 4.00	8.36	< 4.70	< 4.00	9.10	< 4.82	NCc1ccc(Cl)cc1CNC(=O)[C@@H]1C[C@H](N)CN1C(=O)[C@@H](CC(=O)N1CCNCC1)NS(=O)(=O)Cc1ccccc1 [Compound 2.35]
6.22	5.10	< 4.40	< 4.82	< 4.00	9.96	< 4.30	< 4.30	9.92	< 4.10	NCc1ccc(Cl)cc1CNC(=O)[C@@H]1CCCN1C(=O)[C@@H](CC(=O)N1CCCCC1)NS(=O)(=O)Cc1ccccc1 [Compound 2.41]
< 4.30	< 4.30	< 4.70	< 4.30	< 5.00	7.06	< 4.00	< 4.70	6.02	< 4.00	NCc1ccc(Cl)cc1CNC(=O)[C@@H]1CCCN1C(=O)[C@@H](CCC(=O)N1CCOCC1)NC(=O)Cc1ccccc1 [Compound 2.42]
5.24	< 4.40	< 5.00	< 4.10	< 4.00	8.01	< 4.70	< 4.52	8.77	< 4.10	NCc1ccc(Cl)cc1CNC(=O)[C@@H]1CCN1C(=O)[C@@H](CCC(=O)N1CCOCC1)NS(=O)(=O)Cc1ccccc1 [Compound 2.43]
5.74	< 5.00	< 4.70	< 4.46	< 4.00	8.40	< 4.30	< 4.00	9.06	< 4.00	NCc1ccc(Cl)cc1CNC(=O)[C@@H]1CCN1C(=O)[C@@H](CC(=O)N1CCOCC1)NS(=O)(=O)Cc1ccccc1 [Compound 2.44]
5.73	< 4.70	< 5.00	< 4.70	< 4.00	9.14	< 4.70	< 4.52	9.66	< 4.00	NCc1ccc(Cl)cc1CNC(=O)[C@@H]1CCN1C(=O)[C@@H](CC(=O)N1CCCCC1)NS(=O)(=O)Cc1ccccc1 [Compound 2.45]

— patent US8497245B2, “Trypsin-like serine protease inhibitors, their preparation and use as selective inhibitors of the clotting factors IIa and Xa” (The Medicines Company (Leipzig) GmbH, priority 2010, dated 2013)
